From PubChem BioAssay AID652207 (The Scripps Research Institute Molecular Screening Center, 2013)
The source made the active and inactive calls.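 The calls were made as follows: active = IC50 below 10 µM for blocking the PP1 phosphatase acting on a fluorogenic substrate; inactive = IC50 of 10 µM or more.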

target: Serine/threonine-protein phosphatase PP1-alpha catalytic subunit (Homo sapiens) (UniProt P62136); assay: PP1 inhibitor potency with OMFP substrate, dose response, biochemical, fluorescence, set 2 (AID 652207); conditions: purified PP1alpha, OMFP dephosphorylation fluorescence
Sequence (P62136 whole entry, looked up): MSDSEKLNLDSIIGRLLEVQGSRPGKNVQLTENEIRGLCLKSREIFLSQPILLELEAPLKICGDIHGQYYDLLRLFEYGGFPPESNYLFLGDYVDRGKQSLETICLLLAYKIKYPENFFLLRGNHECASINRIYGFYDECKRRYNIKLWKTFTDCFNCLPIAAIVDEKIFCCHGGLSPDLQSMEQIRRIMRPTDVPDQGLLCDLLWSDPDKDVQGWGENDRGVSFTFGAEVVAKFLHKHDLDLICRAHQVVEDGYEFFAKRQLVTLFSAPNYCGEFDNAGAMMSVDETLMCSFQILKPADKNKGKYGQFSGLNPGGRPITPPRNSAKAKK

Row | Structure (SMILES) | IC50
1 | Oc1c(Cc2ccccn2)ccc2cccnc12 | 2.64 µM
2 | CN1CCN(Cc2cc(Cl)c3cccnc3c2O)CC1 | inactive
3 | Oc1c(C(c2ccccn2)N2CCOCC2)cc(Cl)c2cccnc12 (stereo unspecified) | 1.32 µM
4 | CN1CCN(C(c2ccccn2)c2ccc3cccnc3c2O)CC1 (stereo unspecified) | 1.15 µM

More lines, in order of falling IC50, values ahead:

Row | IC50 | Structure (SMILES)
5 | 8.42 µM | CN1CCN(C(c2cccs2)c2cc(Cl)c3cccnc3c2O)CC1 (stereo unspecified)
6 | 1.62 µM | CN1CCN(C(c2nccs2)c2cc(Cl)c3cccnc3c2O)CC1 (stereo unspecified)
